Results taken from patent US9499530B2 (HANGZHOU MINSHENG INSTITUTES FOR PHARMA RESEARCH, priority 2011, dated 2016).
pIC50: −log10 of the molar value.

Columns and labels:
[1] = molecular target: EGFR (Epidermal Growth Factor Receptor 1) (Homo sapiens, UniProt P00533); experiment: ELISA protein tyrosine kinase inhibition, EGFR; assay type: biochemical; details: ELISA, Poly(Glu, Tyr) 4:1 substrate, ATP 5 μM, test samples at 10-5 mol/l; read-out: EGFR inhibitory activity (IC50 class)
From the text: (§1) Determining the Effect of Test Samples at a Concentration of 10-5 Mol/l on the Activity of the Substrate Phosphoryation Catalyzed by EGFR (Epidermal Growth Factor Receptor 1), ErbB-2 (Epidermal Growth Factor Receptor 2), ErbB-4, KDR (Vascular Endothelial Growth Factor Receptor 2) Protein Tyrosine Kinases at Molecular Level
(§2) Enzyme-Linked Immunosorbent Assay (ELISA)
(§3) Main instrument: wavelength-tunable microplate reader (VERSAmax).
(§4) Main reagents: kinase reaction substrate Poly(Glu, Tyr) 4:1 from Sigma; anti-phosphotyrosine monoclonal antibody PY99 from Santa Cruz; horseradish peroxidase-labeled goat anti-mouse IgG from Calbiochem; ATP, DTT, OPD from Amresco, and ELISA plate from Corning.
(§5) Poly(Glu, Tyr)4:1 as an enzyme substrate was diluted by potassium ion-free PBS into 20 μg/ml, and an ELISA plate was coated and subjected to reaction for 12-16 h at 37° C. After the liquid in wells was removed, the plate was washed three time by T-PBS, 5 min for each time. The ELISA plate was then dried in an oven at 37° C. The coated wells were added with the test samples: the test samples were prepared for a stock solution with a concentration of 1×10^−2M in DMSO. The aliquot solution was stored at −20° C., and diluted to the desired concentration with reaction buffer before use. The resulting solution was added into the wells so that the final concentration of 10-5 mol/l in 100 μL reaction system can be obtained. At the same time, a positive control well was set up and a positive control compound Su11248 was added. ATP and test tyrosine kinases were added: ATP solution diluted with reaction buffer was added (the final concentration of ATP is 5 μM). Finally, the test tyrosine kinases solution diluted with reaction buffer was added. The total volume of the reaction system was […]. Meanwhile, a negative control well and a control well without enzyme were set up. The reaction system was placed in a wet box, and shaked for 1 hour at 37° C., shielding from light. After the reaction was complete, the plate was washed by T-PBS three times. Antibody PY99 was added at 100 μL/well; and the plate was shaked for 30 min at 37° C. After the reaction was complete, the plate was washed with T-PBS three times. Horseradish peroxidase-labeled goat anti-mouse IgG was added at 100 μL/well, and the plate was shaked for 30 min at 37° C. The plate was washed with T-PBS three times. OPD developing liquid was added at 100 μL/well, and reacted for 1-10 min at room temperature, shielding from light. 50 μL of 2 M H2SO4 was added to stop the reaction. A492 value was determined using wavelength-tunable microplate reader. The inhibition ratio of the samples can be calculated by the following equation: […]

[2] = molecular target: ErbB-2 (Epidermal Growth Factor Receptor 2) (Homo sapiens, UniProt P04626); experiment: ELISA protein tyrosine kinase inhibition, ErbB-2; assay type: biochemical; details: Poly(Glu, Tyr) 4:1 substrate, ATP 5 μM, test samples at 10-5 mol/l, read-out: ErbB2 inhibitory activity (IC50 class)
From the text: as §1, §2, §3, §4, §5

ErbB-2 (Epidermal Growth Factor Receptor 2), sequence (P04626 23-1255): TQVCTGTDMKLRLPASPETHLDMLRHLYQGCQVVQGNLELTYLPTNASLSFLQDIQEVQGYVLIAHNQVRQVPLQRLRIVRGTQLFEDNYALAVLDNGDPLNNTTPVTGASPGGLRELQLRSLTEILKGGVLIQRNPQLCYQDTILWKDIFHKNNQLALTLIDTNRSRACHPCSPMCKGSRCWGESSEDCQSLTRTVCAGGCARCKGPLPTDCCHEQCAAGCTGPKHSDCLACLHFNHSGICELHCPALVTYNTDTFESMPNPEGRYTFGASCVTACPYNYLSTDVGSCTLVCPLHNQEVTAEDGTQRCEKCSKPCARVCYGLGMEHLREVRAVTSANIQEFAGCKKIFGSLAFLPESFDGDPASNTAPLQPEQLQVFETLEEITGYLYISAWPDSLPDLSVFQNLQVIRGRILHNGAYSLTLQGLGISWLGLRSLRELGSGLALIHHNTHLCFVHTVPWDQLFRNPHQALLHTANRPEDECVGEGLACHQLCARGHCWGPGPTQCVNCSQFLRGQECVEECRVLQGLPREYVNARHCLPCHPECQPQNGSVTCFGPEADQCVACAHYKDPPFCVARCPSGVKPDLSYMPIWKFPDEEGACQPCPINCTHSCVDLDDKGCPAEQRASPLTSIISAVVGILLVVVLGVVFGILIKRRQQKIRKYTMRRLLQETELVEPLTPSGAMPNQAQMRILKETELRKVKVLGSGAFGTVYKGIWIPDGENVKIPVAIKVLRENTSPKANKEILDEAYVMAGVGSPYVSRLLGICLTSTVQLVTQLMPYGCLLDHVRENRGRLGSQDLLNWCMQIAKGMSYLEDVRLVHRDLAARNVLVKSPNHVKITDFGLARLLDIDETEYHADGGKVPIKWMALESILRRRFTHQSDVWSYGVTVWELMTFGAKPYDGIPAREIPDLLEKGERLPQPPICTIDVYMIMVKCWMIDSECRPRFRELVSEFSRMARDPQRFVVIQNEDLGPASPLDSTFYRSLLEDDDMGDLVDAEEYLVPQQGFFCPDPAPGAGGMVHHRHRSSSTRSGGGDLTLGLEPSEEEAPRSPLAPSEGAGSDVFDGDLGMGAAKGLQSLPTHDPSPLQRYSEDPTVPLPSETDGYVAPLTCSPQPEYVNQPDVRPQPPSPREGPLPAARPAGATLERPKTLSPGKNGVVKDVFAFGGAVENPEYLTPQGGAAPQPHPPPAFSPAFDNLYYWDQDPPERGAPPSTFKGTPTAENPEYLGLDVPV
EGFR (Epidermal Growth Factor Receptor 1), sequence (P00533 25-1210): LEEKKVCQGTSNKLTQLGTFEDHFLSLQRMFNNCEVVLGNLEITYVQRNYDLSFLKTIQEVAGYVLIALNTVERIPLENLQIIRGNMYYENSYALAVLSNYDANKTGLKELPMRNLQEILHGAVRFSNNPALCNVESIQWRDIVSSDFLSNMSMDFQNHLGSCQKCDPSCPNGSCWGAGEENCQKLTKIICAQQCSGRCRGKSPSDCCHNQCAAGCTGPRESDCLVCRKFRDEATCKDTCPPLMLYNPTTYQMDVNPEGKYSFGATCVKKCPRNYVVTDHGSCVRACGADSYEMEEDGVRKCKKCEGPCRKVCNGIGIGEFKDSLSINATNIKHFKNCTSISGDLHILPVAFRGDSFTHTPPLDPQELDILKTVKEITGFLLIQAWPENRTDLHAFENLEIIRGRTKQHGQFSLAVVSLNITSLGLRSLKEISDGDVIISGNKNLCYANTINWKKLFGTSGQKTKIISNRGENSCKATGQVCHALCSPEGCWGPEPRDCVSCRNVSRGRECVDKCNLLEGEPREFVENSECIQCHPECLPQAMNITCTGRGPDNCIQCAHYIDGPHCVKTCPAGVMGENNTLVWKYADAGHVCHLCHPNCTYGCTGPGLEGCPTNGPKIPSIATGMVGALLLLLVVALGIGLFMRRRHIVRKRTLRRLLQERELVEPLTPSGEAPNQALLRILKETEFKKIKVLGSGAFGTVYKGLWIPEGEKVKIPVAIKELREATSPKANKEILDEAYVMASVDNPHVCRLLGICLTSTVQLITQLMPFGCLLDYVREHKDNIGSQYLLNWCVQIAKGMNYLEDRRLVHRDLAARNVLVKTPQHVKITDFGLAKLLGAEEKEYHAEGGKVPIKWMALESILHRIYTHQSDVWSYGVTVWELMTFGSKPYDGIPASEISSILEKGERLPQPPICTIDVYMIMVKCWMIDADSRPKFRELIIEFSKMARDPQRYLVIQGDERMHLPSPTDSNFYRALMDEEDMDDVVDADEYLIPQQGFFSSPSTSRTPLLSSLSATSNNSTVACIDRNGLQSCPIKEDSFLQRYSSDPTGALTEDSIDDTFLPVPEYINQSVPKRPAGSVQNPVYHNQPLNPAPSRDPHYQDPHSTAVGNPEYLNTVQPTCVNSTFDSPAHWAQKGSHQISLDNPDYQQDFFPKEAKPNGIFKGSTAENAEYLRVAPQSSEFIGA

SMILES	pIC50 [1]	pIC50 [2]
NC1CCCC(NCc2ccc(-c3ccc4ncnc(Nc5ccc(OCc6cccc(F)c6)c(Cl)c5)c4c3)o2)C1 (centres unmarked) [MS 21, N-(3-chloro-4-((3-fluorobenzyl)oxy)phenyl)-6-(5-(((3-aminocyclohexyl)amino)methyl)-2-furyl)-4-quinazolinamine]	> 5.00	> 5.00
Oc1cc(F)cc(CCNCc2ccc(-c3ccc4ncnc(Nc5ccc(OCc6cccc(F)c6)c(Cl)c5)c4c3)o2)c1 [MS 15, N-(3-chloro-4-((3-fluorobenzyl)oxy)phenyl)-6-(5-(((2-(3-hydroxy-5-fluorophenyl)ethyl)amino)methyl)-2-furyl)-4-quinazolinamine]	> 5.00	> 5.00
Fc1cccc(COc2ccc(Nc3ncnc4ccc(-c5ccc(CNOCc6ccccc6)o5)cc34)cc2Cl)c1 [MS 19, N-(3-chloro-4-((3-fluorobenzyl)oxy)phenyl)-6-(5-(((benzyloxy)amino)methyl)-2-furyl)-4-quinazolinamine]	> 5.00	> 5.00
Fc1cc(Cl)cc(CCNCc2ccc(-c3ccc4ncnc(Nc5ccc(OCc6cccc(F)c6)c(Cl)c5)c4c3)o2)c1 [MS 16, N-(3-chloro-4-((3-fluorobenzyl)oxy)phenyl)-6-(5-(((2-(3-chloro-5-fluorophenyl)ethyl)amino)methyl)-2-furyl)-4-quinazolinamine]	> 5.00	< 5.00
O=C(O)C(CS)NCc1ccc(-c2ccc3ncnc(Nc4ccc(OCc5cccc(F)c5)c(Cl)c4)c3c2)o1 (centres unmarked) [MS 29]	> 5.00	> 5.00
CCN(CC)Cc1ccc(-c2ccc3ncnc(Nc4ccc(OCc5cccc(F)c5)c(Cl)c4)c3c2)o1 [MS 4]	> 5.00	> 5.00
O=[N+]([O-])c1ccc(CCNCc2ccc(-c3ccc4ncnc(Nc5ccc(F)c(Cl)c5)c4c3)o2)cc1 [MS 40, N-(3-chloro-4-fluorophenyl)-6-(5-(((2-(4-nitrophenyl)ethyl)amino)methyl)-2-furyl)-4-quinazolinamine]	–	> 5.00
Fc1cccc(COc2ccc(Nc3ncnc4ccc(-c5ccc(CNCc6cccc(Cl)c6)o5)cc34)cc2Cl)c1 [MS 11, N-(3-chloro-4-((3-fluorobenzyl)oxy)phenyl)-6-(5-(((3-chlorobenzyl)amino)methyl)-2-furyl)-4-quinazolinamine]	> 5.00	< 5.00
O=C(O)C(CO)NCc1ccc(-c2ccc3ncnc(Nc4ccc(OCc5cccc(F)c5)c(Cl)c4)c3c2)o1 (centres unmarked) [MS 28, N-(3-chloro-4-((3-fluorobenzyl)oxy)phenyl)-6-(5-((((1-carboxy-2-hydroxy)ethyl)amino)methyl)-2-furyl)-4-quinazolinamine]	> 5.00	> 5.00
CCNCc1ccc(-c2ccc3ncnc(Nc4ccc(OCc5cccc(F)c5)c(Cl)c4)c3c2)o1 [MS 3, N-(3-chloro-4-((3-fluorobenzyl)oxy)phenyl)-6-(5-((ethylamino)methyl)-2-furyl)-4-quinazolinamine]	> 5.00	> 5.00
NC(=O)CC(NCc1ccc(-c2ccc3ncnc(Nc4ccc(OCc5cccc(F)c5)c(Cl)c4)c3c2)o1)C(=O)O (centres unmarked) [MS 30, N-(3-chloro-4-((3-fluorobenzyl)oxy)phenyl)-6-(5-((((1-carboxy-2-aminoformyl)ethyl)amino)methyl)-2-furyl)-4-quinazolinamine]	> 5.00	> 5.00
O=C(O)CNCc1ccc(-c2ccc3ncnc(Nc4ccc(OCc5cccc(F)c5)c(Cl)c4)c3c2)o1 [MS 22, N-(3-chloro-4-((3-fluorobenzyl)oxy)phenyl)-6-(5-(((carboxymethyl)amino)methyl)-2-furyl)-4-quinazolinamine]	> 5.00	> 5.00
COCCCCNCc1ccc(-c2ccc3ncnc(Nc4ccc(OCc5cccc(F)c5)c(Cl)c4)c3c2)o1 [MS10·dimethanesulfonate, N-(3-chloro-4-((3-fluorobenzyl)oxy)phenyl)-6-(5-(((4-methoxybutyl)amino)methyl)-2-furyl)-4-quinazolinamine]	> 5.00	> 5.00
CCCCCCNCc1ccc(-c2ccc3ncnc(Nc4ccc(OCc5cccc(F)c5)c(Cl)c4)c3c2)o1 [MS 2, N-(3-chloro-4-((3-fluorobenzyl)oxy)phenyl)-6-(5-((n-hexylamino)methyl)-2-furyl)-4-quinazolinamine]	> 5.00	< 5.00
O=C(O)C(Cc1ccccc1)NCc1ccc(-c2ccc3ncnc(Nc4ccc(OCc5cccc(F)c5)c(Cl)c4)c3c2)o1 (centres unmarked) [MS 24, N-(3-chloro-4-((3-fluorobenzyl)oxy)phenyl)-6-(5-((((1-carboxy-2-phenyl)ethyl)amino)methyl)-2-furyl)-4-quinazolinamine]	> 5.00	> 5.00
O=[N+]([O-])c1ccc(CCNCc2ccc(-c3ccc4ncnc(Nc5ccc(OCc6cccc(F)c6)c(Cl)c5)c4c3)o2)cc1 [MS 12, N-(3-chloro-4-((3-fluorobenzyl)oxy)phenyl)-6-(5-(((2-(4-nitrophenyl)ethyl)amino)methyl)-2-furyl)-4-quinazolinamine]	> 5.00	> 5.00
NC(CCCNCc1ccc(-c2ccc3ncnc(Nc4ccc(F)c(Cl)c4)c3c2)o1)C(=O)O (centres unmarked) [MS 37, N-(3-chloro-4-fluorophenyl)-6-(5-((((4-carboxy-4-amino)butyl)amino)methyl)-2-furyl)-4-quinazolinamine]	–	> 5.00
Oc1ccc(CCNCc2ccc(-c3ccc4ncnc(Nc5ccc(OCc6cccc(F)c6)c(Cl)c5)c4c3)o2)cc1 [MS 13, N-(3-chloro-4-((3-fluorobenzyl)oxy)phenyl)-6-(5-(((2-(4-hydroxyphenyl)ethyl)amino)methyl)-2-furyl)-4-quinazolinamine]	> 5.00	> 5.00
COc1cc(CCNCc2ccc(-c3ccc4ncnc(Nc5ccc(OCc6cccc(F)c6)c(Cl)c5)c4c3)o2)cc(OC)c1 [MS 14]	> 5.00	> 5.00
NCCCC(NCc1ccc(-c2ccc3ncnc(Nc4ccc(F)c(Cl)c4)c3c2)o1)C(=O)O (centres unmarked) [MS 38, N-(3-chloro-4-fluorophenyl)-6-(5-((((1-carboxy-4-amino)butyl)amino)methyl)-2-furyl)-4-quinazolinamine]	–	> 5.00
OCCCCC(O)CNCc1ccc(-c2ccc3ncnc(Nc4ccc(OCc5cccc(F)c5)c(Cl)c4)c3c2)o1 (centres unmarked) [MS 17, N-(3-chloro-4-((3-fluorobenzyl)oxy)phenyl)-6-(5-(((2,6-dihydroxyhexyl)amino)methyl)-2-furyl)-4-quinazolinamine]	> 5.00	> 5.00
NC(CCCNCc1ccc(-c2ccc3ncnc(Nc4ccc(OCc5cccc(F)c5)c(Cl)c4)c3c2)o1)C(=O)O (centres unmarked) [MS 32, N-(3-chloro-4-((3-fluorobenzyl)oxy)phenyl)-6-(5-((((4-carboxy-4-amino)butyl)amino)methyl)-2-furyl)-4-quinazolinamine]	> 5.00	> 5.00
